Among the data in patent US9868748B2, “Thiazolopyrrolidine inhibitors of ROR- γ” (Vitae Pharmaceuticals, Inc., priority 2013, dated 2018) are Ki values, retold here.

Chain of recombinant RORγ Ligand Binding Domain (LBD) protein (P51449 269-508): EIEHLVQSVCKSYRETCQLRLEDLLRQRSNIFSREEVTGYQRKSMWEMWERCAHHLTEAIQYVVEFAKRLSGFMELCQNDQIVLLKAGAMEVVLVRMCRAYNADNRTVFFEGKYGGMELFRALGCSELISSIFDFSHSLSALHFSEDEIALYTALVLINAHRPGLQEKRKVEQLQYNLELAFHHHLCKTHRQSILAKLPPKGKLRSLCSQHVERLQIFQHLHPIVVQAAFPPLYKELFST

For this test, the target named is recombinant RORγ Ligand Binding Domain (LBD) protein (Homo sapiens (Human), UniProt P51449). Briefly: Radio-Ligand RORγ Binding Assay (Assay 1). The conditions noted are these: competition with 25-hydroxy [26,27-3H]-cholesterol, SPA; Table 9; read-out: RORγ Binding Ki Range*. How it is done:
Radio-Ligand RORγ Binding Assay (Assay 1)
Compounds of the present invention were tested for ability to bind to RORγ in a cell-free competition assay with commercially available radio-ligand (RL), 25-hydroxy [26,27-^3H]— cholesterol (PerkinElmer, Cat. # NET674250UC), for a ligand binding site on a recombinant RORγ Ligand Binding Domain (LBD) protein expressed as a 6×His-Glutathione-S-Transferase (GST) fusion (“6×His” disclosed as SEQ ID NO: 2). The assay was performed in 96-well SPA plates (PerkinElmer, Cat. #1450-401) in 50 mM HEPES buffer, pH 7.4, containing 150 mM NaCl, 5 mM MgCl2, 10% (v/v) glycerol, 2 mM CHAPS, 0.5 mM β-octylglucopyranoside and 5 mM DTT. Tested compounds were dissolved in DMSO, and semi-log (3.162×) serial dilutions of the compounds were prepared in the same solvent. Two μL of the DMSO solutions were mixed with 28 μL of 8.6 nM 25-hydroxy [26,27-^3H]— cholesterol and 50 μL of 24 nM RORγ LBD. The plate was shaken at 700 rpm for 20 min and incubated for 10 min at rt, after which 40 μL of poly-Lys YSi SPA beads (PerkinElmer, Cat. # RPNQ0010) were added to achieve 50 μg of the beads per well. The plate was incubated on an orbital shaker for 20 min and then for 10 min without agitation at rt. SPA signal for tritium beta radiation was registered on PerkinElmer Microbeta plate reader. Percent inhibition values were calculated based on the high signal obtained with DMSO control and the low signal observed with 10 μM standard RORγ inverse agonist T0901317 (SigmaAldrich, Cat. # T2320). The percent inhibition vs. concentration data were fit into a four-parameter model, and […] values were calculated from the fit as the concentrations corresponding to the inflection points on the dose-response curves. Inhibitory constants (Ki) were calculated using the following equation, where [RL] is the concentration in the assay and KD is a dissociation constant of 25-hydroxy [26,27-^3H]-cholesterol: […]
For `CCS(=O)(=O)c1cnc(CC(=O)Nc2nc3c(s2)CN(Cc2ccc(C(F)(F)F)cc2)[C@@H]3C(C)C)nc1`, the Ki was above 1000 nM.
Regarding `CCS(=O)(=O)c1ccc(CC(=O)Nc2nc3c(s2)CN(C(=O)Cc2ccccc2)[C@@H]3C(C)C)cc1`, the Ki was in the range of 100 to 1000 nM.
For the compound `CCS(=O)(=O)c1ccc(CC(=O)Nc2nc3c(s2)CN(c2ncc(C(F)(F)F)cn2)C3(C)C)cc1`, the Ki fell in the range of 100 to 1000 nM.
Regarding `CCS(=O)(=O)c1ccc(CC(=O)Nc2nc3c(s2)CN(CC2CCOCC2)[C@@H]3C(C)C)cc1`, the Ki is 100 to 1000 nM.
Consider `CCS(=O)(=O)c1ccc(CC(=O)Nc2nc3c(s2)CN(Cc2ccc(C(F)(F)F)cc2)[C@@]3(C)C(C)C)cc1`, for which the Ki lay in the range of 100 to 1000 nM.
In the case of `CCS(=O)(=O)c1ccc(CC(=O)Nc2nc3c(s2)CN(Cc2ccc(C#N)cn2)[C@@H]3C(C)C)cc1`, the inhibition constant (Ki) lay within 100 to 1000 nM.
Next, `CC(C)[C@H]1c2nc(NC(=O)Cc3ccc(F)cc3F)sc2CN1Cc1ccc(Cl)cc1`: 100 to 1000 nM; `CCOC(=O)c1cnc(N2Cc3sc(C(=O)NCc4ccc(S(=O)(=O)CC)cc4)nc3[C@@H]2C(C)C)nc1C(F)(F)F`: above 1000 nM.
With `CCS(=O)(=O)c1ccc(CC(=O)Nc2nc3c(s2)CN(CC2CCNC(=O)C2)[C@H]3C(C)C)cc1` (stereo partly shown), the Ki is 100 to 1000 nM.
Turning to `CCS(=O)(=O)c1ccc(CNC(=O)c2nc3c(s2)CN(c2ncc(CO)c(C(F)(F)F)n2)[C@H]3C(C)C)cc1`, the Ki is above 1000 nM.
For `CCS(=O)(=O)c1ccc(CNC(=O)c2nc3c(s2)CN(Cc2ccc(-c4nnn[nH]4)cc2)[C@H]3C(C)C)cc1`, the Ki was 100 to 1000 nM.
For `COC(=O)c1coc(CN2Cc3sc(NC(=O)Cc4ccc(S(C)(=O)=O)cc4)nc3[C@H]2C(C)C)n1`, the inhibitory constant (Ki) was above 1000 nM.
`CCS(=O)(=O)c1cnc(CC(=O)Nc2nc3c(s2)CN(Cc2ccc(C#N)cc2)[C@@H]3C(C)C)nc1`: the Ki is above 1000 nM.
As for `Cc1cc(C(F)(F)F)nc(N2Cc3sc(Cc4ccc(C#N)cc4C)nc3[C@H]2C(C)C)n1`, the Ki is above 1000 nM.
With `CC(C)[C@@H]1c2nc(NC(=O)Cc3ccc(S(C)(=O)=O)cc3)sc2CN1C(C)c1ccc(C#N)cc1` (stereo partly shown), the Ki lay in the range of 100 to 1000 nM.
Turning to `CCS(=O)(=O)c1ccc(CC(=O)Nc2nc3c(s2)CN(Cc2ccc(S(C)(=O)=O)cc2)C3(C)C)cc1`, the Ki was above 1000 nM.
Regarding `CC(C)[C@H]1c2nc(NC(=O)Cc3ccc(S(C)(=O)=O)cc3)sc2CN1c1nc(Cl)ncc1C#N`, the inhibition constant Ki was 100 to 1000 nM.
Take `CC[C@H]1c2nc(NC(=O)Cc3ccc(C(=O)OC)cc3)sc2CN1Cc1ccc(Cl)cc1`: the Ki was in the range of 100 to 1000 nM.
In the case of `CC(C)[C@@H]1c2nc(NC(=O)Cc3ccc(S(C)(=O)=O)cc3)sc2CN1[C@@H](C)c1ccc(C(F)(F)F)cc1` (single isomer, unassigned), the Ki lay within 100 to 1000 nM.
Regarding `CCS(=O)(=O)c1ccc(CC(=O)Nc2nc3c(s2)CN(Cc2cnc(N)nc2)[C@H]3C(C)C)cc1`, the inhibition constant (Ki) fell in the range of 100 to 1000 nM.
On to `CCS(=O)(=O)c1ccc(CC(=O)Nc2nc3c(s2)CN(Cc2cc[n+]([O-])cc2)[C@H]3C(C)C)cc1`, for which the Ki was in the range of 100 to 1000 nM.
On to `CCS(=O)(=O)c1ccc(CC(=O)Nc2nc3c(s2)CN(c2ncc(-c4ccc(=O)n(C)c4)s2)[C@H]3C(C)C)nc1`, for which the Ki was above 1000 nM.
On to `CCS(=O)(=O)c1ccc(CC(=O)Nc2nc3c(s2)CN(C[C@H]2C[C@H](C(N)=O)C2)[C@H]3C(C)C)cc1` (relative stereo), for which the Ki lay within 100 to 1000 nM.
In the case of `CC[C@@H]1c2nc(NC(=O)Cc3ccc(S(C)(=O)=O)cc3)sc2CN1Cc1ccc(OC(F)(F)F)nc1` it was 100 to 1000 nM.
In the case of `CC(C)[C@H]1c2nc(C(=O)NCc3ccc(S(C)(=O)=O)cc3)sc2CN1Cc1ncc(Cl)cn1` it was 100 to 1000 nM; in that of `CC(C)[C@H]1c2nc(C(=O)NCc3ccc(S(C)(=O)=O)cc3)sc2CN1Cc1ccn(C)c(=O)c1`, above 1000 nM.
On to `CCS(=O)(=O)c1ccc(CC(=O)Nc2nc3c(s2)CN(Cc2ccc(C(F)(F)F)nc2)[C@@H]3C(C)C)cc1`, for which the Ki lay in the range of 100 to 1000 nM.
For the compound `CCS(=O)(=O)c1ccc(CC(=O)Nc2nc3c(s2)CN(C[C@H]2CC[C@H](C(=O)O)CC2)[C@H]3C(C)C)cc1`, the Ki was in the range of 100 to 1000 nM.
Next, `COC(=O)c1cnc(N2Cc3sc(NC(=O)Cc4ccc(S(C)(=O)=O)cc4)nc3[C@@H]2C(C)C)nc1`: above 1000 nM.
In the case of `CC(C)[C@H]1c2nc(NC(=O)Cc3ccc(S(C)(=O)=O)cc3)sc2CN1Cc1ncc(Cl)cc1F` it was 100 to 1000 nM.
In the case of `COc1cc(CN2Cc3sc(NC(=O)Cc4ccc(C#N)cc4)nc3[C@@H]2C(C)C)ccc1C#N` it was below 100 nM; in that of `CCS(=O)(=O)c1ccc(CC(=O)Nc2nc3c(s2)CN(c2ncc(-c4ccc(=O)n(C)c4)cn2)[C@H]3C(C)C)cc1`, above 1000 nM.
In the case of `CC(C)[C@@H]1c2nc(NC(=O)Cc3ccc(S(C)(=O)=O)cc3)sc2CN1Cc1ccc(Br)cc1`, the inhibitory constant (Ki) was 100 to 1000 nM.
As to `Cc1ncc(CN2Cc3sc(NC(=O)Cc4ccc(S(C)(=O)=O)cc4)nc3[C@@H]2C(C)C)cn1`, the Ki was in the range of 100 to 1000 nM.
With `CC(C)[C@H]1c2nc(NC(=O)Cc3ccn4ccnc4c3)sc2CN1Cc1ccc(C(F)(F)F)cc1`, the Ki lay within 100 to 1000 nM.
In the case of `CC(C)[C@H]1c2nc(NC(=O)Cc3ccc(S(C)(=O)=O)cc3)sc2CN1Cc1ccn(C2CC2)c(=O)c1` it was 100 to 1000 nM.
As for `CC(C)[C@@H]1c2nc(NC(=O)Cc3ccc(S(C)(=O)=O)cc3)sc2CN1Cc1ccc(C#N)cc1`, the Ki fell in the range of 100 to 1000 nM.
Take `CC(C)[C@H]1c2nc(C(=O)NCc3ccc(S(C)(=O)=O)cc3)sc2CN1Cc1ccc(C#N)cn1`: the Ki fell in the range of 100 to 1000 nM.
`CC[C@@H]1c2nc(NC(=O)Cc3ccc(S(C)(=O)=O)cc3)sc2CN1[C@@H](C)c1ccc(OC(F)(F)F)cc1` (single isomer, unassigned): the Ki is 100 to 1000 nM.
Take `Cc1ccc(CN2Cc3sc(NC(=O)Cc4ccc(S(C)(=O)=O)cc4)nc3[C@H]2C(C)C)cc1`: the inhibitory constant (Ki) fell in the range of 100 to 1000 nM.
As for `CCS(=O)(=O)c1ccc(CC(=O)Nc2nc3c(s2)CN([C@@H](C)Cc2ccccc2)[C@@H]3C(C)C)cc1`, the inhibitory constant (Ki) is 100 to 1000 nM.
Take `CCS(=O)(=O)c1ccc(CNC(=O)c2nc3c(s2)CN(CC2CNCCO2)[C@H]3C(C)C)cc1` (stereo partly shown): the Ki is above 1000 nM.
In the case of `Cc1nnc(-c2ccc(CC(=O)Nc3nc4c(s3)CN(Cc3ccc(Cl)cc3)[C@H]4C(C)C)cc2)o1` it was 100 to 1000 nM; in that of `Cc1cc(C(F)(F)F)nc(N2Cc3sc(Cc4ccc(-c5nn[nH]n5)cc4C)nc3[C@H]2C(C)C)n1`, 100 to 1000 nM; in that of `CC(C)[C@H]1c2nc(C(=O)NCc3ccc(S(C)(=O)=O)cc3)sc2CN1Cc1cnc(C(F)(F)F)nc1`, 100 to 1000 nM.
As for `CCS(=O)(=O)c1ccc(CNC(=O)c2nc3c(s2)CN(c2nccc(C(F)(F)F)n2)[C@H]3C(C)C)cc1`, the Ki was in the range of 100 to 1000 nM.
For the compound `CCS(=O)(=O)c1ccc(CNC(=O)c2nc3c(s2)CN(c2ncc(C(F)(F)F)cn2)[C@H]3C(C)C)cc1`, the Ki was above 1000 nM.
With `CCOC(=O)c1cnc(N2Cc3sc(NC(=O)Cc4ccc(S(=O)(=O)CC)cc4)nc3C2(C)C)nc1C(F)(F)F`, the Ki fell in the range of 100 to 1000 nM.
In the case of `CC(C)[C@H]1c2nc(NC(=O)CC3CCS(=O)(=O)CC3)sc2CN1Cc1ccc(Cl)cc1`, the Ki lay within 100 to 1000 nM.
With `CCOC(=O)c1cnc(N2Cc3sc(NC(=O)Cc4ccc(S(C)(=O)=O)cc4)nc3[C@@H]2C(C)C)nc1C(F)(F)F`, the Ki fell in the range of 100 to 1000 nM.
For the compound `CCS(=O)(=O)c1ccc(CC(=O)Nc2nc3c(s2)CN(Cc2nccc(C(F)(F)F)n2)[C@@H]3C(C)C)cc1`, the Ki is 100 to 1000 nM.
Take `CCS(=O)(=O)c1ccc(CC(=O)Nc2nc3c(s2)CN(CC2CCC(F)(F)CC2)[C@H]3C(C)C)cc1`: the Ki was below 100 nM.
In the case of `CC(C)[C@H]1c2nc(NC(=O)Cc3ccc(S(C)(=O)=O)cc3)sc2CN1Cc1ncc(Cl)cn1` it was 100 to 1000 nM; in that of `CCS(=O)(=O)c1ccc(CNC(=O)c2nc3c(s2)CN(Cc2ccn(C(F)F)c(=O)c2)[C@H]3C(C)C)cc1`, 100 to 1000 nM.
As for `CCS(=O)(=O)c1ccc(CC(=O)Nc2nc3c(s2)CN(C[C@@H]2CC[C@@H](C(F)(F)F)NC2)[C@H]3C(C)C)nc1` (single isomer, unassigned), the Ki was 100 to 1000 nM.
For `CC1(C)c2nc(NC(=O)Cc3ccc(S(C)(=O)=O)cc3)sc2CN1c1ncc(C(F)(F)F)cn1`, the Ki lay in the range of 100 to 1000 nM.
In the case of `CC(C)[C@H]1c2nc(C(=O)NCc3ccc(S(C)(=O)=O)cc3)sc2CN1Cc1ccc2nn[nH]c2c1` it was 100 to 1000 nM.
As for `CC[C@@H]1c2nc(NC(=O)Cc3ccc(S(=O)(=O)CC)cc3)sc2CN1Cc1ccc(F)cn1`, the Ki is 100 to 1000 nM.
As for `Cc1ccc(CN2Cc3sc(NC(=O)Cc4ccc(S(C)(=O)=O)cc4)nc3[C@@H]2C(C)C)nn1`, the Ki fell in the range of 100 to 1000 nM.
On to `CCS(=O)(=O)c1ccc(CC(=O)Nc2nc3c(s2)CN(Cc2ccc(S(C)(=O)=O)cc2)[C@@H]3C(C)C)cc1`, for which the inhibitory constant (Ki) was 100 to 1000 nM.
With `CC[C@@H]1c2nc(NC(=O)Cc3ccc(S(C)(=O)=O)cc3)sc2CN1Cc1ccc(OC(F)(F)F)cc1F`, the inhibition constant Ki lay within 100 to 1000 nM.
